“And” between values parts separate entries of the source, which are not always exact repeats. Equal values may be shown once. Inconclusive results and toxic doses are left out. Rule for the calls: active = survival T/C of 150% or more; inactive = T/C below 125% in these data.
System: P388 leukemia ip, CD2F1 mice, survival T/C
Assay: NCI In Vivo Anticancer Drug Screen. Data for tumor model P388 Leukemia (intraperitoneal) in CD2F1 (CDF1) mice
Details: endpoint: median survival time, higher = longer survival
Outline: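 Mice carrying the transplanted tumor received test compound or vehicle. Survival was recorded in each group, and the value is the treated-group measurement divided by that of the vehicle-treated control group.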

[1] = dose: 100.0 mg/kg/injection, schedule: Q04DX002 (ip), vehicle: saline
[2] = dose: 200.0 mg/kg/injection, schedule: Q04DX002 (ip), vehicle: saline
[3] = dose: 50.0 mg/kg/injection, schedule: Q01DX009 (ip), vehicle: saline
[4] = dose: 100.0 mg/kg/injection, schedule: Q01DX009 (ip), vehicle: saline
[5] = dose: 25.0 mg/kg/injection, schedule: Q01DX009 (ip), vehicle: saline
[6] = dose: 100.0 mg/kg/injection, schedule: Q04DX003 (ip), vehicle: saline
[7] = dose: 50.0 mg/kg/injection, schedule: Q01DX009 (ip), vehicle: saline with Tween-80
[8] = dose: 100.0 mg/kg/injection, schedule: Q01DX009 (ip), vehicle: saline with Tween-80
[9] = dose: 200.0 mg/kg/injection, schedule: Q01DX009 (ip), vehicle: saline with Tween-80
[10] = dose: 50.0 mg/kg/injection, schedule: Q01DX005 (ip), vehicle: Klucel (hydroxypropylcellulose) (HPC)
[11] = dose: 100.0 mg/kg/injection, schedule: Q01DX005 (ip), vehicle: Klucel (hydroxypropylcellulose) (HPC)
[12] = dose: 200.0 mg/kg/injection, schedule: Q01DX005 (ip), vehicle: Klucel (hydroxypropylcellulose) (HPC)
[13] = dose: 25.0 mg/kg/injection, schedule: Q01DX009 (ip), vehicle: suspension in saline
[14] = dose: 50.0 mg/kg/injection, schedule: Q01DX009 (ip), vehicle: suspension in saline
[15] = dose: 60.0 mg/kg/injection, schedule: Q01DX005 (ip), vehicle: saline with Tween-80
[16] = dose: 120.0 mg/kg/injection, schedule: Q01DX005 (ip), vehicle: saline with Tween-80
[17] = dose: 240.0 mg/kg/injection, schedule: Q01DX005 (ip), vehicle: saline with Tween-80
[18] = dose: 25.0 mg/kg/injection, schedule: Q01DX001 (ip), vehicle: Klucel (hydroxypropylcellulose) (HPC)
[19] = dose: 50.0 mg/kg/injection, schedule: Q01DX001 (ip), vehicle: Klucel (hydroxypropylcellulose) (HPC)
[20] = dose: 100.0 mg/kg/injection, schedule: Q01DX001 (ip), vehicle: Klucel (hydroxypropylcellulose) (HPC)

Measured: T/C

Cc1ccc(S(=O)(=O)N/N=c2\ccc3ccccc3n2C)cc1
inactive: [1] 100 % of control | [2] 99 % of control | dose: 400.0 mg/kg/injection, schedule: Q04DX002 (ip), vehicle: saline 101 % of control

CC1(C)C2CC=C(CCOC(=S)S)C1C2.[Ni] (stereo not given)
inactive: dose: 25.0 mg/kg/injection, schedule: Q01DX009 (ip), vehicle: saline with Tween-80 90 % of control

CCCOC1=NC2=NC(N3CCCC3)=NC3=C(Cl)C=C(Cl)C(=N1)N23
inactive: dose: 25.0 mg/kg/injection, schedule: Q04DX002 (ip), vehicle: Klucel + Tween-80 94 % of control | dose: 50.0 mg/kg/injection, schedule: Q04DX002 (ip), vehicle: Klucel + Tween-80 87 % of control | dose: 100.0 mg/kg/injection, schedule: Q04DX002 (ip), vehicle: Klucel + Tween-80 116 % of control and 86 % of control

CC(=O)NC(Cc1cccs1)C(=O)O (stereo not given)
inactive: [3] 93 % of control | [4] 101 % of control | dose: 200.0 mg/kg/injection, schedule: Q01DX009 (ip), vehicle: saline 101 % of control

CCN(CC)CCOC(=O)Cc1cccc2c(=O)cc(-c3ccccc3)oc12
inactive: dose: 12.5 mg/kg/injection, schedule: Q01DX009 (ip), vehicle: saline 120 % of control | [5] 108 % of control and 97 % of control | dose: 50.0 mg/kg/injection, schedule: Q01DX005 (ip), vehicle: saline 100 % of control | dose: 100.0 mg/kg/injection, schedule: Q01DX001 (ip), vehicle: saline 102 % of control | dose: 100.0 mg/kg/injection, schedule: Q01DX005 (ip), vehicle: saline 108 % of control | [1] 107 % of control | [6] 107 % of control | dose: 100.0 mg/kg/injection, schedule: Q08DX002 (ip), vehicle: saline 111 % of control | dose: 200.0 mg/kg/injection, schedule: Q01DX001 (ip), vehicle: saline 114 % of control | [2] 110 % of control | dose: 200.0 mg/kg/injection, schedule: Q08DX002 (ip), vehicle: saline 117 % of control | dose: 300.0 mg/kg/injection, schedule: Q01DX001 (ip), vehicle: saline 117 % of control | dose: 300.0 mg/kg/injection, schedule: Q04DX002 (ip), vehicle: saline 114 % of control | dose: 300.0 mg/kg/injection, schedule: Q08DX002 (ip), vehicle: saline 112 % of control | dose: 400.0 mg/kg/injection, schedule: Q01DX001 (ip), vehicle: saline 116 % of control

Cc1ccc(-n2cnc3c(N)nc(N)nc32)cc1
inactive: dose: 1.56 mg/kg/injection, schedule: Q01DX005 (ip), vehicle: saline with Tween-80 100 % of control | dose: 3.13 mg/kg/injection, schedule: Q01DX005 (ip), vehicle: saline with Tween-80 108 % of control | dose: 6.25 mg/kg/injection, schedule: Q01DX005 (ip), vehicle: saline with Tween-80 108 % of control and 112 % of control | dose: 12.5 mg/kg/injection, schedule: Q01DX005 (ip), vehicle: saline with Tween-80 115 % of control

Cc1cc(CCNC=O)c(C)c2c1oc1ccccc12
inactive: [7] 110 % of control | [8] 103 % of control | [9] 94 % of control | dose: 400.0 mg/kg/injection, schedule: Q01DX009 (ip), vehicle: saline with Tween-80 94 % of control

CNC(=O)c1ccccc1C(=O)c1ccccc1OC
inactive: [10] 104 % of control | [11] 99 % of control | [12] 97 % of control

CN(C)c1ccc(N=C2C=CC(=O)C(Cl)=C2)cc1
inactive: [13] 106 % of control | [14] 115 % of control

COC1(OC)C(c2ccc([N+](=O)[O-])cc2)C([N+](=O)[O-])C1(OC)OC (stereo not given)
inactive: dose: 60.0 mg/kg/injection, schedule: Q01DX005 (ip), vehicle: Klucel (hydroxypropylcellulose) (HPC) 90 % of control | dose: 120.0 mg/kg/injection, schedule: Q01DX005 (ip), vehicle: Klucel (hydroxypropylcellulose) (HPC) 93 % of control | dose: 240.0 mg/kg/injection, schedule: Q01DX005 (ip), vehicle: Klucel (hydroxypropylcellulose) (HPC) 89 % of control

COc1nc2[nH]ccc2c(=O)n1C
inactive: [15] 101 % of control | [16] 92 % of control | [17] 89 % of control

CC(C)CNS(=O)(=O)c1ncnc2nc[nH]c12
inactive: dose: 100.0 mg/kg/injection, schedule: Q04DX003 (ip), vehicle: saline with Tween-80 100 % of control | dose: 200.0 mg/kg/injection, schedule: Q04DX003 (ip), vehicle: saline with Tween-80 87 % of control

Cc1[nH]c2ccccc2c1SCc1ccccc1
inactive: dose: 25.0 mg/kg/injection, schedule: Q01DX009 (ip), vehicle: saline + alcohol 94 % of control | dose: 50.0 mg/kg/injection, schedule: Q01DX009 (ip), vehicle: saline + alcohol 100 % of control | dose: 100.0 mg/kg/injection, schedule: Q01DX009 (ip), vehicle: saline + alcohol 99 % of control

CC(C)c1c(C[N+](C)([O-])C(C)Cc2ccccc2)n(C)n(-c2ccccc2)c1=O (stereo not given)
inactive: [15] 106 % of control | [16] 102 % of control | [17] 100 % of control

COc1cc2c(cc1OC)C1CC(=O)CCN1CC2 (stereo not given)
inactive: dose: 12.5 mg/kg/injection, schedule: Q01DX009 (ip), vehicle: Klucel (hydroxypropylcellulose) (HPC) 111 % of control | dose: 25.0 mg/kg/injection, schedule: Q01DX009 (ip), vehicle: Klucel (hydroxypropylcellulose) (HPC) 106 % of control | dose: 50.0 mg/kg/injection, schedule: Q01DX009 (ip), vehicle: Klucel (hydroxypropylcellulose) (HPC) 101 % of control | dose: 100.0 mg/kg/injection, schedule: Q01DX009 (ip), vehicle: Klucel (hydroxypropylcellulose) (HPC) 107 % of control

CC1(C)C/C(=N/NC(N)=S)C(=NO)/C(=N\NC(N)=S)C1
inactive: [15] 123 % of control | [16] 110 % of control | [17] 113 % of control

FC(F)(F)COc1ccc(-c2nnc(-c3ccc(OCC(F)(F)F)cc3)o2)cc1
inactive: dose: 100.0 mg/kg/injection, schedule: Q04DX002 (ip), vehicle: saline with Tween-80 90 % of control | dose: 200.0 mg/kg/injection, schedule: Q04DX002 (ip), vehicle: saline with Tween-80 87 % of control | dose: 400.0 mg/kg/injection, schedule: Q04DX002 (ip), vehicle: saline with Tween-80 86 % of control

CC1=CC(C)(C2(C)C=C(C)NC(=O)N2)NC(=O)N1 (stereo not given)
inactive: [18] 99 % of control | [19] 98 % of control | [20] 99 % of control

Cc1[nH]c(NC(=O)C(=O)O)c(C#N)c1C
inactive: [7] 106 % of control | [9] 100 % of control

Oc1ccc(N=Cc2ccc(OCc3ccccc3)cc2)cc1
inactive: [7] 97 % of control | [8] 93 % of control | [9] 93 % of control

N#CC(NCc1ccccc1)C(O)c1ccccc1 (stereo not given)
inactive: [13] 105 % of control | [14] 105 % of control | dose: 100.0 mg/kg/injection, schedule: Q01DX009 (ip), vehicle: suspension in saline 105 % of control

COc1c(N)c2c(c([N+](=O)[O-])c1OC)C(=O)OC2
inactive: [10] 103 % of control | [11] 93 % of control | [12] 97 % of control

OCc1c(Cl)nc2sccn12
inactive: [18] 109 % of control | [19] 105 % of control | [20] 93 % of control and 97 % of control | dose: 400.0 mg/kg/injection, schedule: Q01DX001 (ip), vehicle: Klucel (hydroxypropylcellulose) (HPC) 92 % of control

N/C(C/C(=N/OC(=O)c1ccccc1)OC(=O)c1ccccc1)=N/O
inactive: [6] 101 % of control | dose: 200.0 mg/kg/injection, schedule: Q04DX003 (ip), vehicle: saline 107 % of control | dose: 400.0 mg/kg/injection, schedule: Q04DX003 (ip), vehicle: saline 99 % of control

CCOC(=O)C(=CNc1cc(OC(C)=O)ccc1C)C(=O)OCC
inactive: [10] 110 % of control | [11] 100 % of control | [12] 96 % of control

Cn1c(C(O)CCl)nc2c3ccccc3ccc21 (stereo not given)
inactive: [5] 109 % of control | [3] 106 % of control | [4] 109 % of control and 92 % of control

CCOP(=O)(OCC)Oc1cnn(C)c(=O)c1SCC
inactive: dose: 0.78 mg/kg/injection, schedule: Q01DX005 (ip), vehicle: saline 98 % of control

From PubChem BioAssay AID330 (DTP/NCI, 2004)
